Source: patent US7674580B2, “Compositions and methods for the modulation of sphingolipid metabolism and/or signaling” (priority 2002, dated 2010)
Marks after values point to notes of the source that are not given here.

What was measured:
[1] = test system: Sply^05091 homozygous flies; assay: LCB/LCBP levels in Sply^05091 homozygous flies grown on sphingosine kinase inhibitor (HPLC); format: in vivo, Drosophila melanogaster
Experimental: (§1) Analysis of Drosophila sphingolipids: 100 mg of flies were homogenized in 6 ml of ice cold methanol/water 1:1 (vol:vol) with a Potter-Elvehjem homogenizer with a loose pestle followed by a tight pestle until the pestle moved smoothly. Extract was further homogenized by tip sonication for 3 times 20 sec. Extract was spun at low speed and supernatant was removed and dried down in speed vac. Extract was resuspended in 500 μl of methanol containing 0.1M ammonium hydroxide and incubated for 1 hour at 37° C. Following incubation the extract was dried down in speed vac. Extract was resuspended in 500 μl of 50% methanol containing 0.1% glacial acetic acid and applied to a C18E STRATA solid phase extraction column. C18E STRATA column was washed with 50% methanol containing 0.1% glacial acetic acid followed by a wash with 100% methanol containing 0.1% glacial acetic acid. Lipids of interest were eluted with methanol/10 mM ammonium acetate, 9:1 (vol:vol). Lipids were dried down in speed vac. and o-pthaladehyde labeled for HPLC analysis as previously described (Kim, S., Fyrst, H. and Saba, J. (2000). Genetics 156, 1519-29.).

[2] = test system: Sply^05091 homozygous flies; assay: Adult flight performance of Sply^05091 homozygous flies grown on sphingosine kinase inhibitor; format: in vivo, Drosophila melanogaster
wild type flies = assay: LCBP levels in wild type flies grown on sphingosine kinase inhibitor; format: in vivo, Drosophila melanogaster; details: wild type flies grown on D,L-threo-DHS
Experimental: as §1

bst1Δ cells = assay: Sphingosine sensitivity (growth) of SPL-deleted yeast; format: cell-based, S. cerevisiae
Excerpt: Within certain embodiments, an in vitro assay for SPL activity may be performed using cellular extracts prepared from cells that express the polypeptide of interest. […] It has been found, within the context of the present invention, that yeast cells containing deletion of the SPL gene (BST1) are suitable for use in evaluating the SPL activity of a polypeptide. bst1Δ cells can be generated from S. cerevisiae using standard techniques, such as PCR, as described herein. […] For such a test, a polypeptide is preferably expressed on a high-copy yeast vector (such as pYES2, which is available from Invitrogen) yielding more than 20 copies of the gene per cell. In general, a polypeptide has SPL activity if, when expressed using such a vector in a bst1Δ cell, a cellular extract results in a two-fold increase in substrate degradation over the level observed for an extract prepared from cells not expressing the polypeptide.
(§2) A further test for SPL activity may be based upon functional complementation in the bst1Δ strain. It has been found, within the context of the present invention, that bst1Δ cells are highly sensitive to D-erythro-sphingosine.
Functional complementation in yeast: Strains of interest were grown to saturation in liquid culture for 2-3 days. […] Plates were incubated at 30° C. for two days and assessed visually for differences in growth.

wildtype cells = assay: Sphingosine sensitivity (growth) of wildtype yeast; format: cell-based, S. cerevisiae; details: 10 μM sphingosine
Experimental: as §2
Functional complementation in yeast: Strains of interest were grown to saturation in liquid culture for 2-3 days. They were then resuspended in minimal medium, placed in the first row of a 96-well plate and diluted serially from 1:2 to 1:4000 across the plate. […] Louis, Mo.). […] At this concentration of NP40, no effects on cell viability are observed. Plates were incubated at 30° C. for two days and assessed visually for differences in growth.

[3] = Sply^05091 homozygous flies + 1 mM D,L-threo-DHS, separate experiment, mixed-age adults

Reduction of LCBP levels ([1]; Sply^05091 homozygotes grown in the presence of sphingosine kinase inhibitor)	C14/16 LCBPs, percentage of untreated controls [1, 3] [%*]	C14/16 LCBs, percentage of untreated controls [1, 3] [%*]	LCBP levels, % of normal levels (wild type flies) [%]	Compound	Average flight score ([2]; Sply^05091 + 1 mM D,L-threo-DHS, score upward=3, lateral=2, downward=1, flightless=0, ±s.e.m., untreated Sply^05091 0.40 ± 0.036)	Flight performance ([2]; Sply^05091 mutants grown on media supplemented with 10 μM D,L-threo-DHS, F2 progeny)	Growth of bst1Δ cells (bst1Δ cells; concentrations as low as 10 μM sphingosine)	Proliferation of dpl1Δ strain (bst1Δ cells; media containing low concentrations of D-erythro-sphingosine)	Growth of wildtype cells (wildtype cells)
approximately 20%	81	136	20	CCCCCCCCCCCCCCC[C@H](O)[C@@H](N)CO [D,L-threo-DHS, D,L-threo-dihydrosphingosine]	0.62 ± 0.057	slight but significant improvement in flight performance			
				CCCCCCCCCCCCC/C=C/[C@@H](O)[C@@H](N)CO [D-erythro-sphingosine]			completely inhibit the growth	cannot proliferate	no effect on the growth
